For this test, the target named is T1, human factor Xa (Homo sapiens, UniProt P00742).
T1 construct: Factor Xa is a serine endopeptidase composed of two disulfide-linked subunits; purchased Enzyme Research Laboratories
In words: chromogenic peptide substrate assay, inhibition of factor Xa. It counts as biochemical. As to conditions: human factor Xa 3 nM, chromogenic substrate S-2222, pH 7.8, room temperature; apparent Ki from IC50 by Cheng-Prusoff. The protocol:
Factor Xa activity was measured spectrophotometrically in microtiter plates in a final volume of 150 μl using the following conditions: Inhibition of human factor Xa (Enzyme Research Laboratories) was tested at an enzyme concentration of 3 nM using the chromogenic substrate S-2222 (Chromogenix AB, Mölndal, Sweden) at […]. The reaction kinetics of the enzyme and the substrate were linear with both time and the enzyme concentration. The inhibitors were dissolved in DMSO and tested at various concentrations up to 100 μM. The inhibitors were diluted using HNPT buffer consisting of HEPES 100 mM, NaCl 140 mM, PEG 6000 0.1% and Tween 80 0.02%, pH 7.8. […] The velocity of the reaction was determined by the autoreader from the slope of the linear regression fit to 7 time points (1 minute). The initial velocity for each inhibitor concentration was determined by the slope of at least 4 time points in the linear phase by a linear regression fit […]. Apparent dissociation constants Ki were calculated according to Cheng and Prusoff [Cheng, Y. C.; Prusoff, W. H. Relationship between the inhibition constant (Ki) and the concentration of the inhibitor that causes 50 percent inhibition (IC50) of an enzyme reaction. Biochem. Pharmacol. 1973, 22, 3099-3108.] based on the IC50 and the respective Km, determined previously (Ki=IC50/(1+S/Km)). […]

T1 sequence (P00742 235-488 limits assumed): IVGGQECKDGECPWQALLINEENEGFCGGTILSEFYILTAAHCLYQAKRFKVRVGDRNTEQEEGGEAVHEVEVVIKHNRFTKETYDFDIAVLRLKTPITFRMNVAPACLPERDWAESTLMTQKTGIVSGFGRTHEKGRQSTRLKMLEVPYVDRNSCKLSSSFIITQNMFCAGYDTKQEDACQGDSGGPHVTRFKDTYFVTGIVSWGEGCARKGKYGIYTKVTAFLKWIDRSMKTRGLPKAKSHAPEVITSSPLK
T1 sequence (P00742 41-179 partner limits assumed): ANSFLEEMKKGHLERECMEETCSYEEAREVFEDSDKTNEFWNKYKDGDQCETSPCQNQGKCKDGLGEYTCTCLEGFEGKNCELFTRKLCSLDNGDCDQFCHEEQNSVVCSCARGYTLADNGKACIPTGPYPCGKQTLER

Consider `O=C(Nc1ccc(-n2ccccc2=O)cc1F)[C@H]1C[C@H]1C(=O)Nc1ccc(Cl)cn1` (single isomer, unassigned) [Example 1.4 (1S,2R) enantiomer], for which the Ki was 0.003 µM.

These data come from patent US20110195997A1, “Dicarboxamide Derivatives” (priority 2006, published 2011).
